The Kd is the free concentration of one partner at which half of the binding sites on the other are occupied at equilibrium, for simple one-to-one binding. High values mean a looser complex, low ones a tighter complex. As usually defined, the EC50 is the midpoint of the concentration-response curve. A low value points to greater potency.

For experiment [1], the target named is T1, hPIV-N51 (139-189) (Human parainfluenza 3 virus, UniProt P06828).
T1 construct: hPIV-N51 (139-189)
Briefly: SPR affinity to hPIV-N51 coupled on CM5 chip. The experiment is classed as binding.

The test system of experiment [2] is hMPV B1. The experiment is classed as cell-based. Conditions: Vero cells, plaque reduction. In a few lines: (§1)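 Plaque reduction in Vero cells (40000/well), 8 concentrations in duplicate; compound pre-mixed with ~200 PFU virus 1 h at 33° C, adsorbed 2 h at 37° C, then overlay with compound, 0.8% CMC, 5 μg/ml trypsin, 0.5% DMSO for 1 day at 33° C. Plaques immunostained (TrueBlue) and counted; EC50 by four-parameter fit.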

Experiment [3] deals with hMPV A2. It is filed as cell-based. The following applies: Vero cells, plaque reduction. An outline of the steps: as §1

Where a SMILES comes first, the peptide text is derived from it.

T1 sequence (P06828 139-189): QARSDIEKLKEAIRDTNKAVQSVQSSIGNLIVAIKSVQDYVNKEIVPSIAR

`CC[C@H](C)[C@H](NC(=O)[C@H](CCCCN)NC(=O)[C@H](CCCCN)NC(=O)[C@H](CC(C)C)NC(=O)[C@H](CO)NC(=O)[C@H](CCC(N)=O)NC(=O)[C@H](CC(N)=O)NC(=O)[C@@H](NC(=O)[C@H](CCCCN)NC(=O)[C@H](CCCCN)NC(=O)[C@H](CC(=O)O)NC(=O)[C@H](Cc1ccccc1)NC(=O)[C@H](CCC(=O)O)NC(=O)[C@@H](NC(=O)[C@H](CCCCN)NC(=O)[C@H](CCCCN)NC(=O)[C@H](CC(N)=O)NC(=O)[C@@H](NC(=O)[C@H](CC(C)C)NC(=O)[C@H](CCC(=O)O)NC(=O)[C@H](CC(=O)O)NC(=O)[C@H](CO)NC(C)=O)C(C)C)[C@@H](C)CC)[C@@H](C)CC)C(=O)N[C@@H](CCC(=O)O)C(=O)N[C@@H](CCC(=O)O)C(=O)N[C@@H](CO)C(=O)N[C@@H](CC(=O)O)C(=O)N[C@@H](CCCCN)C(=O)N[C@@H](CCCCN)C(=O)N[C@@H](CCCCN)C(=O)N[C@@H](CC(C)C)C(=O)N[C@@H](CCC(=O)O)C(=O)N[C@@H](C)C(=O)N[C@@H](C)C(=O)N[C@@H](C)C(=O)N[C@@H](CCCCN)C(=O)N[C@@H](CCCCN)C(N)=O` [Compound 51] (Ac-SDELVNKKIEFDKKINQSLKKIEESDKKKLEAAAKK-NH2) displayed a Kd in experiment [1] of 51.4 nM. Further, the values for the EC50 in experiment [2] and in experiment [3] were 3.82 nM and 18.8 nM, respectively.

For the origin of these results see US20260250325A1, “Antiviral Polypeptide Membrane Fusion Inhibitor, and Preparation Method and Application Thereof” (priority 2025, published 2026).
